Read-outs that look alike come from different tables or passages of the source. Where a SMILES comes first, the peptide text is derived from it. The star is where a group is joined. Cbz = O=C(OCc1ccccc1)*
How the values were obtained:
PC-3 cells [1] = test: Apoptosis by PARP cleavage in PC-3 cells
MM.1S cells = test: Apoptosis by PARP cleavage in MM.1S cells
HCT-116 cells = test: Apoptosis by PARP cleavage in HCT-116 cells; type: cell-based, human
From the text: Sensitization to proteasome and Hsp90 inhibitors was seen when we tested additional cancer cells lines. In fact, depletion of HSF1 by treatment with siRNA in either a distinct prostate carcinoma line DU-145 or colon carcinoma HCT-116 cells led to suppression of the heat shock response and increased sensitivity to MG132 and 17-AAG (FIG. 2). […] Depletion of HSF1 in these cells led to a dramatic reduction of the constitutive Hsp72 levels (FIG. 2B) and very strong sensitization to the drugs (FIGS. 2C, 2D, and 2E).

HSP72 [2] = test: HSP72 induction in MM.1S cells (heat shock, proteasome or HSP90 inhibitors), immunoblotting; type: cell-based, human; details: for HSP72 induction by the drug / Inhibition of HSP72 induction by proteasome inhibitors: MM.1S; for HSP72 induction by the drug: 16 hours; for inhibition at 2 µM / inhibition at 10 µM: Homo sapiens, MM1.S; for inhibition at 2 µM: MM.1s, read-out: HSP72 Inhibition, by NZ28 (2 μM); for Inhibition of Hsp72 induction in response to Hsp90 inhibitors radicicol and 17-AAG: MM.1S blocked stronger than PC-3; for Inhibition of HSP72 induction by proteasome inhibitors: VELCADE or MG132 for 16 hours; for inhibition at 10 µM: read-out: HSP72 inhibition, by Emunin (10 μM), MM.1s
[3] = test system: HSF1-activated Hsp70B promoter; test: HSF1 activity: luciferase reporter under Hsp70B promoter in PC-3 cells after heat shock; details: added 5 hours before 45° C. 10 min, overnight recovery
HSP72 [4] = test: HSP72 induction in MEF cells (proteasome or HSP90 inhibitors), immunoblotting; details: Mus musculus, read-out: HSP72 Inhibition, by NZ28 (2 μM)
CMV-driven GFP = test: General protein synthesis: CMV-driven GFP expression in CHO cells; type: cell-based; details: added 16 hours post-infection, 24 hours, NZ28 2 μM, emunin 10 μM
CHO cells = test: Toxicity in CHO cells; type: cell-based; details: for IC50: Cricetulus griseus, read-out: IC50 toxicity
From the text: Three of these compounds, including emetine, tubulosine, and NZ28, have significant structural similarity.

HSP72 [5] = test: HSP72 induction in PC-3 cells (heat shock, proteasome or HSP90 inhibitors), immunoblotting; type: cell-based, human; details: for inhibition at 2 µM / inhibition at 10 µM: Homo sapiens; for inhibition at 2 µM: read-out: HSP72 Inhibition, by NZ28 (2 μM); for Inhibition of Hsp72 induction by 17-AAG: PC-3 cells
[6] = test system: HSP72 induction (CHO cells); test: Inhibition of Hsp72 induction by heat shock in CHO cells (immunoblotting); type: cell-based; details: for Inhibition of Hsp72 induction, second step of the screening / IC50: CHO cells; for Inhibition of Hsp72 induction, second step of the screening: 45° C. 10 min, then 6 hours at 37° C.; for Inhibition of Hsp72 induction by heat shock, NCI similarity set: concentrations between 2 and 10 μM
HSP27 = HSP27 induction by proteasome and HSP90 inhibitors in MM.1S cells, immunoblotting; details: VELCADE or Radicicol, emunin 10 μM, NZ28 2 μM added 5 hours before
[7] = test system: luciferase under the tet-off promoter; test: General protein synthesis: luciferase induction under tet-off promoter in CHO cells; type: cell-based; details: 24 hours, NZ28 1 and 2 μM
PC-3 cells [8] = test: Clonogenic survival of PC-3 cells
protein synthesis = details: cited from earlier work
[9] = Cricetulus griseus, heat shock (FIGS. 3A and 3B), read-out: IC50 for inhibition of Hsps induction
[10] = Cricetulus griseus, heat shock, read-out: IC50 HSP72 Induction Inhibition (CHO cells)
[11] = 4 min, Heat Shock 45° C., 4 min
[12] = HSP90 Inhibitor Radicicol 0.8 μM
[13] = Proteasome Inhibitor VELCADE 5 nM

COc1cccc2c1C(=O)c1c(O)c3c(c(O)c1C2=O)C[C@@](O)(C(=O)CO)C[C@@H]3O[C@H]1C[C@H](N)[C@H](O)[C@H](C)O1 [doxorubicin, reference compound]
Sensitization to apoptosis by si-HSF1 (PC-3 cells [1]): little or no sensitization

C[C@@H]1C[C@H]2O[C@@H]2/C=C\C=C\C(=O)Cc2c(Cl)c(O)cc(O)c2C(=O)O1 [radicicol]
PARP cleavage, radicicol alone (MM.1S cells; 0.5 μM, 24 hours): 10%
Sensitivity of control cells (HCT-116 cells; HCT-116 control cells): resistant
Sensitivity of si-HSF1 cells (HCT-116 cells; HCT-116 si-HSF1 cells): quite sensitive

CC(C)C[C@H](NC(=O)[C@H](Cc1ccccc1)NC(=O)c1cnccn1)B(O)O [VELCADE®, bortezomib, reference compound]
PARP cleavage, VELCADE alone (MM.1S cells; 5 nM, overnight): 30%
HSP72 induction by the drug (HSP72 [2]): Strong induction

CCC1=C(CC2NCCc3ccccc32)CC2c3cc(OC)c(OC)cc3CCN2C1 (stereo not drawn) [NZ28]
Inhibition of luciferase induction by heat shock (Hsp70B promoter reporter) [3]: about 40%
inhibition at 2 µM (HSP72 [4]): 100%
Inhibition of GFP expression (CMV promoter) (CMV-driven GFP): No significant inhibition of GFP expression
Cell growth inhibition (CHO cells; CHO cells): slight growth inhibition
Toxicity (CHO cells; CHO cells): did not show toxicity
IC50 (CHO cells; CHO cells): 5000 nM
inhibition at 2 µM (HSP72 [5]; PC-3, 20 min, PC-3, Heat Shock 45° C., 20 min): 85%
inhibition at 2 µM (HSP72 [5]; PC-3, PC-3, HSP90 Inhibitor 17-AAG 2 μM): 70%
inhibition at 2 µM (HSP72 [5]; PC-3, PC-3, Proteasome Inhibitor MG132 1 μM): 90%
Inhibition of Hsp72 induction by 17-AAG (HSP72 [5]): significant but transient
Inhibition of Hsp72 induction, second step of the screening ([6]; 2 μM): inhibit Hsp72 induction
inhibition at 2 µM ([6]; Cricetulus griseus, 10 min, CHO, Heat Shock 45° C., 10 min, 2 μM, read-out: HSP72 Inhibition, by NZ28 (2 μM)): 99%
IC50 [6, 9]: 1000 nM
IC50 [6, 10]: 1000 nM
Inhibition of Hsp27 induction (HSP27): inhibit HSP72 and HSP27 induction
Sensitization to radicicol (PARP cleavage) (MM.1S cells; 0.1 μM radicicol 48 h, 2 μM NZ28): similarly sensitized
inhibition at 2 µM (HSP72 [2]; [11]): 100%
inhibition at 2 µM (HSP72 [2]; [12]): 90%
inhibition at 2 µM (HSP72 [2]; [13]): 100%
Inhibition of Hsp72 induction in response to Hsp90 inhibitors radicicol and 17-AAG (HSP72 [2]): inhibited induction of Hsp72
Inhibition of HSP72 induction by proteasome inhibitors (HSP72 [2]): almost completely inhibited HSP72 induction
Inhibition of luciferase expression (tet-off promoter) [7]: Neither NZ28 (FIG. 3C) nor emunin (not shown) inhibited luciferase expression

O=c1c(O)c(-c2ccc(O)c(O)c2)oc2cc(O)cc(O)c12 [quercetin, reference compound]
IC50 [6, 9]: ~50000 nM

CC(C)C[C@@H](C=O)NC(=O)[C@H](CC(C)C)NC(=O)[C@H](CC(C)C)NC(=O)OCc1ccccc1 [MG132, N-carbobenzoxyl-Leu-Leu-leucinal, reference compound] (Cbz-Leu-Leu-Leu-aldehyde)
Sensitivity of si-HSF1 cells, colony forming ability (PC-3 cells [8]; between 0.25 μM and 2 μM): very strong enhancement of sensitivity
Hsp72 induction by the drug (HSP72 [5]; PC-3 RetroQ cells, 24 hours): strongly induced
PARP cleavage, MG132 alone (PC-3 cells [1]; PC-3, 2 days): approximately 10%
HSP72 induction by the drug (HSP72 [2]): Strong induction

COc1ccc(CC2NCCc3cc(OC)c(OC)cc32)cc1OC (stereo not drawn) [NZ54]
IC50 (CHO cells; CHO cells): < 2000 nM
IC50 [6, 10]: > 10000 nM

C=CCNC1=C2C[C@@H](C)C[C@H](OC)[C@H](O)[C@@H](C)/C=C(\C)[C@H](OC(N)=O)[C@@H](OC)/C=C\C=C(/C)C(=O)NC(=CC1=O)C2=O [17-AAG, 17-(allylamino)-17-demethoxygeldanamycin, reference compound]
Sensitization by si-HSF1, colony forming ability (PC-3 cells [8]; wide range of concentrations): about 5 fold
Hsp72 induction by the drug (HSP72 [5]): strongly induced
Increase in PARP cleavage on depletion of HSF1 (PC-3 cells [1]; PC-3, 0.25 μM, 24 hours): 100%

COc1cc2c(cc1OC)C(CC1=CCN3CCc4ccccc4C3C1)NCC2 (stereo not drawn) [NZ60]
IC50 (CHO cells; CHO cells): < 2000 nM
IC50 [6, 10]: > 10000 nM

CCC1=C(CC2NCCc3cc(OC)c(OC)cc32)CC2c3cc(OC)c(OC)cc3CCN2C1 (stereo not drawn) [dehydroemetine, reference compound]
IC50 (CHO cells; CHO cells): < 500 nM
IC50 [6, 10]: < 500 nM
Inhibition of Hsp72 induction by heat shock, NCI similarity set [6]: inhibit Hsp72 induction

CCC1CN2CCc3cc(OC)c(OC)cc3C2CC1C1c2cc(OC)c(OC)cc2CCN1C(=O)CNC(=O)OC(C)(C)C (stereo not drawn) [NZ71]
Inhibition of luciferase induction by heat shock (Hsp70B promoter reporter) [3]: about 40%
Inhibition of GFP expression (CMV promoter) (CMV-driven GFP): No significant inhibition of GFP expression
Cell growth inhibition (CHO cells; CHO cells): very little cell growth inhibition
Toxicity (CHO cells; CHO cells): non-toxic
IC50 (CHO cells; CHO cells): > 10000 nM
Colony forming ability, emunin alone (PC-3 cells [8]): did not affect the colony forming ability
inhibition at 10 µM (HSP72 [5]; PC-3, 20 min, read-out: HSP72 inhibition, by Emunin (10 μM), PC-3, Heat Shock 45° C., 20 min): 80%
inhibition at 10 µM (HSP72 [5]; PC-3, read-out: HSP72 inhibition, by Emunin (10 μM), PC-3, HSP90 Inhibitor 17-AAG 2 μM): 60%
inhibition at 10 µM (HSP72 [5]; PC-3, read-out: HSP72 inhibition, by Emunin (10 μM), PC-3, Proteasome Inhibitor MG132 1 μM): 80%
Inhibition of Hsp72 induction by 17-AAG (HSP72 [5]): only weak inhibition
inhibition at 10 µM ([6]; Cricetulus griseus, 10 min, CHO, Heat Shock 45° C., 10 min, 10 μM, read-out: HSP72 inhibition, by Emunin (10 μM)): 95%
IC50 [6, 9]: 5000 nM
IC50 [6, 10]: 5000 nM
Inhibition of Hsp72 induction by heat shock, NCI similarity set [6]: inhibit Hsp72 induction
Inhibition of Hsp27 induction (HSP27): inhibit HSP72 and HSP27 induction
PARP cleavage, emunin alone (MM.1S cells): did not cause PARP cleavage
PARP cleavage, emunin and VELCADE together (MM.1S cells; VELCADE 5 nM + 10 μM emunin, overnight): 70%
PARP cleavage, radicicol and emunin (MM.1S cells; radicicol 0.5 μM + 10 μM emunin, 24 hours): about 50%
Sensitization of si-HSF1 PC-3 cells to MG-132 (PC-3 cells [1]; HSF1-depleted PC-3 cells): no apparent sensitization
PARP cleavage, MG132 and emunin (PC-3 cells [1]; PC-3, 2 days): 50%
Sensitization to radicicol (PC-3 cells [1]; PC-3 cells): little sensitization
inhibition at 10 µM (HSP72 [2]; [11]): 90%
inhibition at 10 µM (HSP72 [2]; [12]): 90%
inhibition at 10 µM (HSP72 [2]; [13]): 95%
Inhibition of Hsp72 induction in response to Hsp90 inhibitors radicicol and 17-AAG (HSP72 [2]): inhibited induction of Hsp72
Inhibition of HSP72 induction by proteasome inhibitors (HSP72 [2]): almost completely inhibited HSP72 induction

CCC1CN2CCc3cc(OC)c(OC)cc3C2CC1CC1NCCc2cc(OC)c(OC)cc21 (stereo not drawn) [Emetine, reference compound]
Toxicity in an apoptotic assay (CHO cells): showed toxicity
IC50 (CHO cells; CHO cells): < 250 nM
Inhibition of Hsp72 induction, second step of the screening ([6]; 2 μM): inhibit Hsp72 induction
IC50 [6, 10]: < 250 nM
Concentration at which protein synthesis is inhibited (protein synthesis): above 10 μM

COc1cc2c(cc1OC)CN1CCc3cc(OC)c(OC)cc3C1C2 (stereo not drawn) [NZ50]
IC50 (CHO cells; CHO cells): < 2000 nM
IC50 [6, 10]: > 10000 nM

CCC1=C(C)CC2c3cc(OC)c(OC)cc3CCN2C1 (stereo not drawn) [NZ61]
IC50 (CHO cells; CHO cells): < 2000 nM
IC50 [6, 10]: > 10000 nM

CCC1CN2CCc3cc(OC)c(OC)cc3C2CC1CC1NCCc2cc(O)c(OC)cc21 (stereo not drawn) [Isocephaeline, Emetan-6′-ol, 7′,10,11-trimethoxy-,(1′beta)-]
IC50 (CHO cells; CHO): < 500 nM
IC50 [6, 10]: < 500 nM
Inhibition of Hsp72 induction by heat shock, NCI similarity set [6]: inhibit Hsp72 induction

COc1cc2c(cc1OC)C(CC1=C(c3ccccc3)CN3CCc4cc(OC)c(OC)cc4C3C1)NCC2 (stereo not drawn) [NZ62]
IC50 (CHO cells; CHO cells): < 2000 nM
IC50 [6, 10]: > 10000 nM

CCC1CN2CCc3cc(OC)c(OC)cc3C2CC1CC1NCCc2c1[nH]c1ccc(OC)cc21 (stereo not drawn) [NZ72]
IC50 (CHO cells; CHO cells): > 2000 nM
IC50 [6, 10]: 2000 nM
Inhibition of Hsp72 induction by heat shock, NCI similarity set [6]: inhibit Hsp72 induction

CCC1CN2CCc3cc(OC)c(OC)cc3C2CC1CC1NCCc2c1[nH]c1ccc(O)cc21 (stereo not drawn) [tubulosine]
Toxicity in an apoptotic assay (CHO cells): showed toxicity
IC50 (CHO cells; CHO): 250 nM
Inhibition of Hsp72 induction, second step of the screening ([6]; 2 μM): inhibit Hsp72 induction
IC50 [6, 10]: 500 nM

Source: patent US20090062222A1, “Methods for Sensitizing Cancer Cells to Inhibitors” (TRUSTEES OF BOSTON UNIVERSITY, priority 2005, published 2009)
